Data as given in patent US4446151A, “Decarboxylase-inhibiting fluorinated pentane diamine derivatives” (Merrell Toraude et Compagnie, priority 1982, dated 1984).

Target: T1, ornithine decarboxylase (ODC) (Rattus norvegicus, UniProt P09057)
T1 construct: is prepared from the livers of rats which have been injected with thioacetamide; from tissue; host or cells: liver of rats injected with thioacetamide (150 mg/kg, 18 h before sacrifice); purified about ten fold by acid treatment at pH 4.6
T1 sequence (P09057 1-461): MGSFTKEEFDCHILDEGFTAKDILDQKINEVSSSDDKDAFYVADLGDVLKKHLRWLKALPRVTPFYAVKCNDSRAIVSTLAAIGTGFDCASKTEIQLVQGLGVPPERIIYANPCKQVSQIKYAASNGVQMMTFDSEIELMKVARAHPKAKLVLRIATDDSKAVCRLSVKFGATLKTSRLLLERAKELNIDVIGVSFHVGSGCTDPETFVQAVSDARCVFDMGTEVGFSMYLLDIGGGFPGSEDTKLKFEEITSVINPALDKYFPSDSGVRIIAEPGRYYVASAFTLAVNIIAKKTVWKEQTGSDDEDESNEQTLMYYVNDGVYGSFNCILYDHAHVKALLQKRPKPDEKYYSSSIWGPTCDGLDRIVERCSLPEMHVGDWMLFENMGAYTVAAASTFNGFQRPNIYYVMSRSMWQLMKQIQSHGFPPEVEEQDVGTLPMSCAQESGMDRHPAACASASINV
Assay: in vitro inhibition (time-dependent inactivation) of ornithine decarboxylase (ODC) prepared from rat liver
Assay type: biochemical
Details: 37° C.; for .tau.50 (half-life, at infinite concentration of inhibitor): pH 7.1, Kitz and Wilson; for Half-life (t1/2) at 10 μM: inhibitor at 10 μM, pH 7.1
Procedure: At different times 50 μl aliquots are transferred into a 1 mL assay medium containing sodium phosphate (30 mM, pH 7.1), dithiothreitol (5 mM), pyridoxal phosphate (0.1 mM), L-ornithine (0.081 μmol), and DL-[1-^14 C]ornithine (0.043 μmol, 58 Ci/mol, Amersham) in a closed vessel in which a filter paper moistered with 50 μl hyamine hydroxide (1M) is fitted. The reaction is allowed to proceed for 60 min at 37° C. and then terminated by addition of 0.5 ml of 40% trichloroacetic acid. After an additional 30 min, the CO2 absorbed on the filter paper is counted in a standard scintillation cocktail.

Row | Compound | .tau.50 (half-life, at infinite concentration of inhibitor) [min] | Half-life (t1/2) at 10 μM [min]
1 | NCC(=O)CC(N)(CF)C(=O)O (stereo not shown) [A, 2-fluoromethyl-2,5-diamino-4-oxo-pentanoic acid] | 3.1 | 4.5
2 | C=C(CN)CC(N)CF (stereo not shown) [B, 1-fluoro-2,5-diamino-4-methylene-pentane] | 2.6 | 6.4
3 | NCC(=O)CC(N)CF (stereo not shown) [C, 1-fluoro-2,5-diamino-4-oxo-pentane] | 1.6 | 2.8
4 | C=C(CN)CC(N)(CF)C(=O)O (stereo not shown) [D, 2-fluoromethyl-2,5-diamino-4-methylene-pentanoic acid] | 3.6 | 23
5 | C=C(CN)CC(N)C(F)F (stereo not shown) [E, 1,1-difluoro-2,5-diamino-4-methylene-pentane] | 2.2 | 14
